Consider 14 compounds from publication PMC9919615, “Generation of Aurachin Derivatives by Whole-Cell Biotransformation and Evaluation of Their Antiprotozoal Properties” (Molecules, 2023).

Broadly, the IC50 is the point on the concentration scale where inhibition reaches its midpoint.

Molecules are shown by their SMILES. Where two headings read alike, the source gives them in different places.

Test [1] relates to T. cruzi Tulahuen C4. Description: Antitrypanosomal assay T. cruzi (beta-galactosidase reporter strain on rat skeletal myoblasts). The class given is cell-based, Trypanosoma cruzi. The settings on record: intracellular amastigotes, 4 days on rat skeletal myoblasts. As for the experimental part: (§1) Serial dilution assays with 11 dilution steps in 96-well plates were used in order to determine the IC50 values of the generated aurachin D analogs against P. falciparum NF54 (erythrocytic stages), T. brucei rhodesiense STIB 900 (bloodstream forms), T. cruzi Tulahuen C4 (intracellular amastigotes) and L. donovani MHOM-ET-67/L82 (axenic amastigotes). Potential cytotoxic effects were evaluated with L6 myoblast cells (Table 2).
Activity against Trypanosoma cruzi was evaluated according to a procedure described by Buckner and coworkers. The strain Tulahuen C4 of T. cruzi, which had been transfected with the β-galactosidase lacZ gene, was cultivated for 4 days on rat skeletal myoblasts (5% CO2, 37 °C) in the presence of drug. For measurement of the IC50, the substrate chlorophenol red-β-D-galactopyranoside was added. The color reaction that developed during the following 2–4 h was quantified photometrically employing an ELISA reader. Benznidazole was included in each test series as positive control.

For test [2], the system named is P. falciparum NF54. In words: Antiplasmodial assay (3H-hypoxanthine incorporation). The class given is cell-based, Plasmodium falciparum. The conditions noted are these: erythrocytic stages, 48 h drug exposure + 24 h with 3H-hypoxanthine. As for the experimental part:
as §1
Antiplasmodial activity was determined against the NF54 strain of Plasmodium falciparum using a modified ^3H-hypoxanthine incorporation assay. Briefly, infected erythrocytes were exposed to serial drug dilutions in microtiter plates for 48 h at 37 °C in a gas mixture with reduced oxygen and elevated carbon dioxide concentrations. ^3H hypoxanthine was added to each well, and after further incubation for 24 h, the wells were harvested on glass fiber filters and counted in a liquid scintillation counter. From the sigmoidal inhibition curve, the IC50 value was calculated. Chloroquine was used as positive control in each test series.

Test [3] has as its system T. brucei rhodesiense STIB 900. Description: Antitrypanosomal assay T. brucei rhodesiense (resazurin viability). It is filed as cell-based, Trypanosoma brucei rhodesiense. The settings on record: read-out: IC50 T. brucei rhodesiense STIB 900. As for the experimental part:
as §1
Activity against Trypanosoma brucei rhodesiense (strain STIB 900) was evaluated according to a previously established protocol. Parasites were grown axenically in culture medium supplemented with horse serum. Following a 3-day exposure to test compounds, the viability of tryptomastigote parasites was quantified using the dye resazurin by monitoring the reductive environment of living cells. Fluorescence development was expressed as percentage of the control, and IC50 values were calculated. Melarsoprol was included as positive control.

Test [4] concerns L. donovani MHOM-ET-67/L82. Description: Antileishmanial assay (axenic amastigotes, resazurin viability). The class given is cell-based, Leishmania donovani. The conditions noted are these: 3-day exposure, pH 5.4. As for the experimental part: Serial dilution assays with 11 dilution steps in 96-well plates were used in order to determine the IC50 values of the generated aurachin D analogs against P. falciparum NF54 (erythrocytic stages), T. brucei rhodesiense STIB 900 (bloodstream forms), T. cruzi Tulahuen C4 (intracellular amastigotes) and L. donovani MHOM-ET-67/L82 (axenic amastigotes). Potential cytotoxic effects were evaluated with L6 myoblast cells (Table 2). Evaluation of antileishmanial activity was carried out with axenically grown amastigotes of Leishmania donovani MHOM-ET-67/L82, as previously described. For this, the amastigotes were cultured at 37 °C and pH 5.4 in SM medium supplemented with 10% heat-inactivated fetal bovine serum under an atmosphere of 5% CO2 in air. Following a 3-day exposure to test compounds, the viability of amastigote parasites was quantified using the dye resazurin by monitoring the reductive environment of living cells. Fluorescence development was expressed as percentage of the control, and IC50 values were calculated. Miltefosine was used as positive control.
(In general: Alamar Blue is a resazurin reagent that responds to reducing activity.)

Test [5] has as its system Rat Myoblast L6 Cells. In words: Cytotoxicity assay with L6 cells (resazurin viability). The class given is cell-based. As for the experimental part:
as §1
Cytotoxicity was tested with L6 cells (ATCC CRL-1458), a […] cell line derived from rat skeletal myoblasts, as previously described. For this, L6 cells were grown in culture medium supplemented with heat-inactivated fetal bovine serum under an atmosphere of 5% CO2 in air. Following a 3-day exposure to test compounds, the viability of L6 cells was quantified using the dye resazurin by monitoring the reductive environment of living cells. Fluorescence development was expressed as percentage of the control, and IC50 values were calculated. Podophyllotoxin was used as reference.

[6] abbreviates: Trypanosoma cruzi, TULAHUEN, Myoblast, 96 h.
Setting [7] is: Plasmodium falciparum, NF54, 72 h.
The mark [8] stands for this setting: Trypanosoma brucei, 72 h, bloodstream forms, 3-day exposure.
Setting [9] is: Rattus norvegicus, L6, 72 h, cytotoxicity, 3-day exposure, read-out: IC50 Rat Myoblast L6 Cells.
[10] abbreviates: bloodstream forms, 3-day exposure.
[11] abbreviates: cytotoxicity, 3-day exposure, read-out: IC50 Rat Myoblast L6 Cells.

`O=C(Cn1ccnc1[N+](=O)[O-])NCc1ccccc1` [Benznidazole, reference compound] had an IC50 in test [1] (setting [6]) of 2.5 µM.
On to `CC(C)=CCC/C(C)=C/CC/C(C)=C/Cc1c(C)[nH]c2ccccc2c1=O` [Compound 1, aurachin D], for which the IC50 was determined as 0.012 µM in test [2] (setting [7]); 4.5 µM in test [3] (setting [8]); 1.3 µM in test [1] (setting [6]); 0.044 µM in test [4] (Leishmania donovani, 72 h); 131 µM in test [5] (setting [9]); 131 µM in test [5] (Rattus norvegicus, L6, cytotoxicity, read-out: IC50 rat skeletal myoblasts).
As to `CC(C)=CCC/C(C)=C/CC/C(C)=C/Cc1c[nH]c2ccccc2c1=O` [Compound 2, 2-Desmethyl aurachin D], the IC50 in test [2] is 0.006 µM; in test [3] (setting [10]), 9.5 µM; in test [1], 2.4 µM; in test [4], 1.5 µM; in test [5] (setting [11]), 20.4 µM.
On the same counts, the results for `CC(C)=CCC/C(C)=C/CC/C(C)=C/Cc1c(C)[nH]c2ccc(C)cc2c1=O` [Compound 3, 6-Methyl aurachin D] are 0.514 µM, 43.2 µM, 7.6 µM, 4.3 µM and 18.6 µM.
With `CC(C)=CCC/C(C)=C/CC/C(C)=C/Cc1c(C)[nH]c2cc(C)ccc2c1=O` [Compound 4, 7-Methyl aurachin D], the IC50 stood at 0.007 µM in test [2] (setting [7]); 164 µM in test [3] (setting [8]); 45.7 µM in test [1] (setting [6]); 9.1 µM in test [4] (Leishmania donovani, 72 h); 65.3 µM in test [5] (setting [9]).
On to `COc1ccc2[nH]c(C)c(C/C=C(\C)CC/C=C(\C)CCC=C(C)C)c(=O)c2c1` [Compound 5, 6-Methoxy aurachin D], for which the IC50 was 0.866 µM in test [2]; 40.3 µM in test [3] (setting [10]); 19.3 µM in test [1]; 7.3 µM in test [4]; 118 µM in test [5] (setting [11]).
As to `COc1ccc2c(=O)c(C/C=C(\C)CC/C=C(\C)CCC=C(C)C)c(C)[nH]c2c1` [Compound 6, 7-Methoxy aurachin D], the IC50 in test [2] was determined as 0.089 µM; in test [3] (setting [10]), 44.8 µM; in test [1], 21.9 µM; in test [4] it was 17.1 µM; in test [5] (setting [11]), 80.8 µM.
For `CC(C)=CCC/C(C)=C/CC/C(C)=C/Cc1c(C)[nH]c2ccc(F)cc2c1=O` [Compound 7, 6-Fluoro aurachin D] the same measures were 0.061 µM, 37.2 µM, 1.8 µM, 0.617 µM and 126 µM.
As to `CC(C)=CCC/C(C)=C/CC/C(C)=C/Cc1c(C)[nH]c2ccc(Cl)cc2c1=O` [Compound 8, 6-Chloro aurachin D], the IC50 in test [2] is 0.021 µM; in test [3] (setting [10]), 37.4 µM; in test [1] it was 11.2 µM; in test [4], 6.2 µM; in test [5] (setting [11]), 118 µM.
As to `CC(C)=CCC/C(C)=C/CC/C(C)=C/Cc1c(C)[nH]c2cc(Cl)ccc2c1=O` [Compound 9, 7-Chloro aurachin D], the 50% inhibitory concentration (IC50) was determined as 0.07 µM in test [2]; 105 µM in test [3] (setting [10]); 41.8 µM in test [1]; 9.2 µM in test [4]; 54.7 µM in test [5] (setting [11]).
For `CC(C)=CCC/C(C)=C/CC/C(C)=C/Cc1c(C)[nH]c2ccc(Br)cc2c1=O` [Compound 10, 6-Bromo aurachin D] the same measures were 0.119 µM, 40.2 µM, 22.6 µM, 13.9 µM and 108 µM.
Regarding `Nc1nc(N)nc(Nc2ccc([As]3SCC(CO)S3)cc2)n1` (stereo not shown) [Melarsoprol, reference compound], the IC50 in test [3] (Trypanosoma brucei, 72 h) was 0.013 µM.
Turning to `CCCCCCCCCCCCCCCCOP(=O)([O-])OCC[N+](C)(C)C` [Miltefosine, reference compound], the IC50 in test [4] (Leishmania donovani, 72 h) was found to be 0.732 µM.
On to `COc1cc([C@@H]2c3cc4c(cc3[C@H](O)[C@H]3COC(=O)[C@H]23)OCO4)cc(OC)c1OC` [Podophyllotoxin, reference compound], for which the IC50 in test [5] (Rattus norvegicus, L6, 72 h, read-out: IC50 Rat Myoblast L6 Cells) was 0.022 µM.
